Experimental data from patent publication US4820695A, “C-20-dihydro-deoxy-(cyclic amino)-derivatives of macrolide antibiotics” (priority 1987, dated 1989).
≈ marks a conversion by molar mass, not a printed value. Like-named read-outs stand apart in the source and are kept apart here.

What was measured:
[1] = test system: Streptococcus pyogenes C203; experiment: ED50 in mice experimentally infected with S. pyogenes C203 (Table XI); type: in vivo; details: Streptococcus pyogenes, doses given 1 and 4 hours postinfection, read-out: ED50
Description: The C-20 modified derivatives of this invention have shown in vivo antimicrobial activity against experimentally-induced infections in laboratory animals. When two doses of test compound were administered to mice experimentally infected with S. pyogenes C203, the activity observed was measured as an ED50 value [effective dose in mg/kg to protect 50% of the test animals: see Warren Wick, et al., J. Bacteriol. 81, 233-235 (1961)].
^a mg/kg × 2; doses given 1 and 4 hours postinfection

[2] = test system: Pasteurella multocida 60A; experiment: MIC, broth-dilution microtiter test (Table X); type: cell-based; details: Avian isolate, read-out: MIC
Text: (§1) The MIC's in Table X were obtained using conventional broth-dilution microtiter tests.

Mycoplasma hyorhinis 29E = experiment: MIC, broth-dilution microtiter test (Table X); type: cell-based; details: read-out: MIC
Text: as §1

[3] = test system: Pasteurella hemolytica 22C; experiment: MIC, broth-dilution microtiter test (Table X); type: cell-based; details: read-out: MIC
Text: as §1

[4] = test system: Mycoplasma gallisepticum 29C; experiment: MIC, broth-dilution microtiter test (Table X); type: cell-based; details: Mycoplasmoides gallisepticum, read-out: MIC
Text: as §1

Staphylococcus aureus = experiment: MIC, broth-dilution microtiter test (Table X); type: cell-based; details: read-out: MIC
Text: as §1

[5] = test system: Mycoplasma hyopneumoniae S5972; experiment: MIC, broth-dilution microtiter test (Table X); type: cell-based; details: Mesomycoplasma hyopneumoniae, read-out: MIC
Text: as §1

Mycoplasma synoviae 40A = experiment: MIC, broth-dilution microtiter test (Table X); type: cell-based; details: Mycoplasmopsis synoviae, read-out: MIC
Text: as §1

[6] = test system: Pasteurella multocida 17E; experiment: MIC, broth-dilution microtiter test (Table X); type: cell-based; details: Bovine isolate, read-out: MIC
Text: as §1

Streptococcus sp. 19F = experiment: MIC, broth-dilution microtiter test (Table X); type: cell-based; details: read-out: MIC
Text: as §1

[7] = test system: Streptococcus pneumoniae Park I; experiment: MIC, standard agar-dilution assay (Table IX); type: cell-based; details: Streptococcus pneumoniae Park I; agar-dilution; read-out: MIC
Klebsiella X26 = experiment: MIC, standard agar-dilution assay (Table IX); type: cell-based; details: read-out: MIC
[8] = test system: Staphylococcus aureus S13E; experiment: MIC, standard agar-dilution assay (Table IX); type: cell-based; details: Staphylococcus aureus, S13E
[9] = test system: Staphylococcus aureus V41; experiment: MIC, standard agar-dilution assay (Table IX); type: cell-based; details: Staphylococcus aureus V41, Penicillin-resistant strain, read-out: MIC
[10] = test system: Haemophilus influenzae C.L.; experiment: MIC, standard agar-dilution assay (Table IX); type: cell-based; details: Ampicillin-sensitive strain, read-out: MIC
Escherichia coli EC14 = experiment: MIC, standard agar-dilution assay (Table IX); type: cell-based; details: read-out: MIC
Escherichia coli N10 = experiment: MIC, standard agar-dilution assay (Table IX); type: cell-based; details: read-out: MIC
[11] = test system: Staphylococcus epidermidis 222; experiment: MIC, standard agar-dilution assay (Table IX); type: cell-based; details: read-out: MIC
[12] = Titratable groups in 66% aqueous DMF (Tables XIV-XVI); type: physicochemical
Text: ^c Run in 66% aqueous DMF
^d Run in 66% aqueous DMF

[13] = test system: Staphylococcus epidermidis EPI1; experiment: MIC, standard agar-dilution assay (Table IX); type: cell-based; details: Staphylococcus epidermidis EPI1; agar-dilution; read-out: MIC
[14] = test system: Streptococcus Group D 2041; experiment: MIC, standard agar-dilution assay (Table IX); type: cell-based; details: GROUPD2041, read-out: MIC
Escherichia coli TEM = experiment: MIC, standard agar-dilution assay (Table IX); type: cell-based; details: read-out: MIC
[15] = test system: Streptococcus Group D X66; experiment: MIC, standard agar-dilution assay (Table IX); type: cell-based; details: read-out: MIC
Pasteurella multocida = experiment: Pasteurella infection in one-day-old chicks, subcutaneous administration (Table XII); type: in vivo; details: Administered subcutaneously, 30 mg/kg × 2, 1 and 4 hours post-challenge
Description: Many of the C-20 modified derivatives of this invention have also shown in vivo antibacterial activity against infections induced by gram-negative bacteria. Tables XII and XIII summarize the results of tests in which illustrative compounds were evaluated against a Pasteurella infection in one-day-old chicks. The compounds were administered parenterally or orally after challenge of the chicks with Pasteurella multocida (0.1 ml of a 10^-4 dilution of a twenty-hour tryptose broth culture of an avian P. multocida given subcutaneously). In these tests, unless indicated otherwise, all non-medicated infected chicks died within 24 hours of Pasteurella challenge. In the tests summarized in Table XII, the compounds were administered by subcutaneous injection at a dosage of 30 mg/kg, 1 and 4 hours post-challenge of the chicks with P. multocida. In the tests summarized in Table XIII the compounds were administered in medicated drinking water (at a level of 2 g/gal) available from 4 to 20 hours prior to challenge of the chicks with P. multocida and during the 3 -day test period.
^a Administered subcutaneously; 30 mg/kg × 2

[16] = test system: Staphylococcus aureus X400; experiment: MIC, standard agar-dilution assay (Table IX); type: cell-based; details: Staphylococcus aureus X400, Methicillin-resistant strain, read-out: MIC
Staphyloccus aureus X1.1 = experiment: MIC, standard agar-dilution assay (Table IX); type: cell-based, Staphylococcus aureus; details: Staphylococcus aureus, read-out: MIC
[17] = test system: Haemophilus influenzae 76; experiment: MIC, standard agar-dilution assay (Table IX); type: cell-based; details: Haemophilus influenzae 76, Ampicillin-resistant strain, read-out: MIC
[18] = test system: Streptococcus pyogenes C203; experiment: MIC, standard agar-dilution assay (Table IX); type: cell-based; details: read-out: MIC

| SMILES | ED50 ([1]; C203, Oral) | ED50 ([1]; C203, sc, Subcutaneous) | MIC [2] | MIC (Mycoplasma hyorhinis 29E) | MIC [3] | MIC [4] | MIC (Staphylococcus aureus) | MIC [5] | MIC (Mycoplasma synoviae 40A) | MIC [6] | MIC (Streptococcus sp. 19F) | MIC [7] | MIC (Klebsiella X26) | MIC [8] | MIC [9] | MIC [10] | MIC (Escherichia coli EC14) | MIC (Escherichia coli N10) | MIC [11] | MIC [13] | further results |
| --- | --- | --- | --- | --- | --- | --- | --- | --- | --- | --- | --- | --- | --- | --- | --- | --- | --- | --- | --- | --- | --- |
| CCC1OC(=O)CC(O)C(C)C(OC2OC(C)C(O)C(N(C)C)C2O)C(CCN2CCCCCCCCCCCC2)CC(C)C(=O)C=CC(C)=CC1COC1OC(C)C(O)C(OC)C1OC (stereo not drawn) [Compound D10, 20-DH-DO-20-(azacyclotridecan-1-yl)desmycosin] | 68 mg/kg | < 10 mg/kg | 3.12 mg/L (≈ 3.32 µM) | 12.5 mg/L (≈ 13.3 µM) | 1.56 mg/L (≈ 1.66 µM) | 0.097 mg/L (≈ 0.103 µM) | 0.39 mg/L (≈ 0.415 µM) | 0.78 mg/L (≈ 0.83 µM) | ≤ 0.048 mg/L | 1.56 mg/L (≈ 1.66 µM) | 0.78 mg/L (≈ 0.83 µM) | 0.25 mg/L (≈ 0.266 µM) | 16 mg/L (≈ 17 µM) | 0.25 mg/L (≈ 0.266 µM) | 0.25 mg/L (≈ 0.266 µM) | 4 mg/L (≈ 4.26 µM) | 64 mg/L (≈ 68.1 µM) | 32 mg/L (≈ 34.1 µM) | 0.12 mg/L (≈ 0.128 µM) | 0.25 mg/L (≈ 0.266 µM) | pKa ([12]; Titratable groups): 9.5; pKa ([12]; Titratable groups (first value)): 8; MIC [14]: 4 mg/L (≈ 4.26 µM); MIC (Escherichia coli TEM): 8 mg/L (≈ 8.52 µM); MIC [15]: 4 mg/L (≈ 4.26 µM); Number of Deaths/Number Treated (Pasteurella multocida): 10/10; MIC [16]: 0.25 mg/L (≈ 0.266 µM); MIC (Staphyloccus aureus X1.1): 0.25 mg/L (≈ 0.266 µM); MIC [17]: 8 mg/L (≈ 8.52 µM) |
| CCC1OC(=O)CC(O)C(C)C(OC2OC(C)C(O)C(N(C)C)C2O)C(CCN2CCC(Cc3ccccc3)CC2)CC(C)C(=O)C=CC(C)=CC1COC1OC(C)C(O)C(OC)C1OC (stereo not drawn) [Compound D27, 20-DH-DO-20-(4-benzyl-piperidin-1-yl)desmycosin] | 16.5 mg/kg | 3.81 mg/kg | 12.5 mg/L (≈ 13.4 µM) | 25 mg/L (≈ 26.8 µM) | 12.5 mg/L (≈ 13.4 µM) | ≤ 0.048 mg/L | 3.12 mg/L (≈ 3.35 µM) | 0.39 mg/L (≈ 0.419 µM) | ≤ 0.048 mg/L | 6.25 mg/L (≈ 6.71 µM) | 0.78 mg/L (≈ 0.838 µM) | 0.5 mg/L (≈ 0.537 µM) | 64 mg/L (≈ 68.7 µM) | 1 mg/L (≈ 1.07 µM) | 1 mg/L (≈ 1.07 µM) | 32 mg/L (≈ 34.4 µM) | 128 mg/L (≈ 137 µM) | 128 mg/L (≈ 137 µM) | 0.25 mg/L (≈ 0.268 µM) | 1 mg/L (≈ 1.07 µM) | MIC [18]: 0.25 mg/L (≈ 0.268 µM); MIC [14]: 4 mg/L (≈ 4.3 µM); MIC (Escherichia coli TEM): 32 mg/L (≈ 34.4 µM); MIC [15]: 2 mg/L (≈ 2.15 µM); Number of Deaths/Number Treated (Pasteurella multocida): 8/10; MIC [16]: 1 mg/L (≈ 1.07 µM); MIC (Staphyloccus aureus X1.1): 1 mg/L (≈ 1.07 µM); MIC [17]: 16 mg/L (≈ 17.2 µM) |
